Laboratory results reported in PMC8362126, “Proteolysis Targeting Chimera (PROTAC) for Macrophage Migration Inhibitory Factor (MIF) Has Anti‐Proliferative Activity in Lung Cancer Cells” (Angewandte Chemie (International Ed. in English), 2021).
Where “and” joins values, the source holds several entries; their conditions need not be identical. Identical values can stand only once. Entries after “also recorded” stand apart in the source; their conditions may differ.

Assays:
MIF [1] = molecular target: T1, MIF (Homo sapiens, UniProt P14174); experiment: MIF catalyzed 4-HPP tautomerization assay; format: biochemical; settings: for IC50: 4-HPP conversion assay; for Ki: MIF catalyzed 4-HPP tautomerization, n=3
T1 sequence (P14174 2-115 limits assumed): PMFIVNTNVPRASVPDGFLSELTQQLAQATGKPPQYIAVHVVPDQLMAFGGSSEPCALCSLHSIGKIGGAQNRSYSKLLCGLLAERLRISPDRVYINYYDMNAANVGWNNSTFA
Procedure: S2. MIF Tautomerase activity IC50 study
The protocol for measuring inhibition of MIF tautomerase enzyme activity and enzyme kinetics was described previously.[8] Briefly, 180 µL of a 500 nM MIF solution in boric acid buffer (435 mM, pH 6.2) was mixed with 10 µL of a 20 mM EDTA solution in demiwater and 10 µL of a solution of the desired compound dissolved in DMSO or blanc DMSO. This mixture was pre-incubated at room temperature for 10 min. Next, 50 µL of this mixture was mixed with 50 µL of a 1 mM 4-HPP solution in ammonium acetate buffer (50 mM, pH 6.0). Subsequently, MIF tautomerase activity was monitored by measuring the increase of UV absorbance at 306 nm over time. MIF tautomerase activity in the presence a blank DMSO dilution was set to 100% enzyme activity. Non-catalyzed conversion of the substrate in absence of MIF was set to 0%.
Data from the first three minutes were used to calculate the initial velocities. All experiments were repeated three times and calculations were performed with the program GraphPad Prism.
Table S1. 4-HPP conversion assay results of MIF PROTACs
(also on this page, place not known: p rotocol previously. subs trate log [MD-1] (10^-6 M) Activity of MIF tautomerase(%) -2 -1 0 1 2 0 50 100 log [MD-2] (10^-6 M) Activity of MIF tautomerase(%) -2 -1 0 1 2 0 50 100)

MIF [2] = molecular target: T1, MIF; experiment: MIF degradation in A549 cells, cell lysate-based ELISA; parameters: endogenous in cells; host or cells: A549 (ATCC CCL-185); settings: for degradation [%] 2 μM / Dmax at 20 µM / degradation (%) 20 µM: vs DMSO, mean±SD n=3
Procedure: In addition, A549 cells have been successfully used for assessing activity of cereblon ligand‐based PROTACs previously.[42] Therefore, A549 is a suitable cell line for evaluating the effect of our putative MIF‐directed PROTACs MD1 to MD12 on MIF protein levels. The reduction in MIF levels were monitored in A549 cells that were treated with two different PROTAC concentrations (20 and 2 μM) for 12 h in order to estimate the dose dependency, which is important for PROTACs because of the Hook effect.[35] The MIF levels in cell lysates were analyzed using an enzyme‐linked immunosorbent assay (ELISA).
S3. ELISA screening of MIF protein level on MIF-directed PROTACs
Cell culture. Human A549 lung cancer cells (ATCCCCL-185) or HEK293 kidney […]
containing 10% (v/v) fetal bovine serum (FBS), 100 U/mL penicillin/streptomycin […]
ELISA. 7×10^5 A549 cells per well were plated in 6-well plates. The next day, cells were treated with a solution of compounds or the vehicle for 12 h. Subsequently, the culture medium was removed and cells were washed twice with cold PBS and collected after trypsin (0.5 mL) degestion. Cells were then lyzed in lysis buffer (150 mM NaCl, 50 mM Hepes pH 7.5, 5 mM EDTA, 0.1% (w/v) NP40) containing protease inhibitor cocktail (Roche, #11836153001) and resuspended vigourously. The supernatant was collected after spinning down at 16 000g at 4 °C for 30 min. The total protein concentration was determined with PierceTM BCA protein assay kit ( ThermoFisher , #23225). The protein concentration was normalized between samples. The relative MIF levels from 1µg total protein were determined by ELISA with the human MIF DuoSet ELISA kit according to the instructions of the manufacturer (R&D systems, #DY289).
Figure S1. Screening of compounds for MIF degradation activity by cell lysate -based ELISA.
A549 cells were treated with compounds at (A) 20 or (B) 2 µM for 12 h. Data was normalized […]
(1 picture or pasted object on this page, not shown here)

MIF [3] = molecular target: T1, MIF; experiment: MIF degradation in A549 cells, western-blot; format: cell-based; parameters: endogenous in cells; host or cells: A549 (ATCC CCL-185); settings: A549 cells; for rescue of MD9 mediated MIF degradation: 2 hours pretreatment (1 100 µM, 3 50 µM, 4 50 µM, Bortezomib), then 10 µM MD9 12 h; for rescue of MD13 mediated MIF degradation: co-treatment (Bortezomib) or 1 hour pretreatment (3, 4) with MD13
Procedure: The concentration dependence of PROTAC MD13‐mediated induction of MIF degradation in A549 cells was investigated using western‐blot. […] The MIF levels were normalized to the vehicle treated control and plotted to the respective MD13 concentrations. This provided a DC50 of around 100 nM and a maximal degradation of around 90–95 % at concentrations higher than 1 μM (Figure 3 B). The DC50 of MD13 measured by ELISA assay was about 200 nM (Figure 3 C), which is in line with the result from western‐blot. […]
Cell lysates were prepared using the protocol described above. About 10−40 μg of total protein was mixed with the 4× Laemmli Loading Dye (250 mM Tris, pH 6.8, 40% glycerol, 5% SDS, 0.005% bromophenol blue, 4% β-mercaptoethanol) and heated at 95−100 °C for 5 min and loaded onto a 12% Bis-Tris gel (Bio-Rad Laboratories, #4561084) and proteins were separated at 120V. Afterwards, proteins were transferred to polyvinylidene fluoride (PVDF) membranes, subsequently non-specific antibody binding was blocked with 5% nonfat dry milk (BIO-RAD, #1706404) in TBST buffer and incubated overnight at 4 °C with one of the following primary antibodies: anti-MIF (1:1000, ThermoFisher, #PA5-27343 ) or anti-β-actin (1:10000 Cell Signalling, #8457). The membranes were further incubated with a goat anti-rabbit HRP-conjugated secondary antibody (1:2000, DAKO, p0448) for 2 h at room temperature. Proteins were visualized with an ECLTM Prime Western Blotting System (GE Healthcare #RPN2232). The immunoblot was generated by ChemiDoc MP Imaging Systems (Bio-Rad) and analyzed by the ImageJ software. […]
As a control, the same experiment was repeated and analyzed by a western-blot assay (Figure 3B). The potency estimated from the Western blot assay was 1 µM (Figure 3C), which is consistent with the result from the ELISA assay. The “Hook effect” […]

MIF [4] = molecular target: T1, MIF; experiment: MIF degradation in A549 cells, cell lysate-based ELISA; parameters: endogenous in cells; host or cells: A549 (ATCC CCL-185); settings: 12 h, vs DMSO, mean±SD n=3

Row | SMILES | IC50 (MIF [1]) [nM] | Ki (MIF [1]) [nM] | degradation [%] 2 μM (MIF [2]; A549 cells, 12 h) | Dmax at 20 µM (MIF [2]; A549, 12 h, A549 cells, 12 h) [%] | other results
1 | O=C(CCCCNc1cccc2c1C(=O)N(C1CCC(=O)NC1=O)C2=O)NCc1ccc(N2Cc3ccc(O)cc3OC2=O)cc1 (centres unmarked) [MD8] | 129 ± 8 | 86 ± 5 | 21±7% |  | Dmax at 20 µM (MIF [2]; A549 cells, 12 h): 51 ± 4%
2 | O=C1CCC(N2C(=O)c3cccc(NC(=O)CCc4cn(CC(=O)Nc5ccc(-c6cc7ccc(O)cc7oc6=O)cc5)nn4)c3C2=O)C(=O)N1 (centres unmarked) [MD2] | 288 ± 25 | 192 ± 17 | n.s. | 31 ± 3 | 
3 | O=C1CCC(N2C(=O)c3cccc(NCCCCCCC(=O)Nc4ccc(N5Cc6ccc(O)cc6OC5=O)cc4)c3C2=O)C(=O)N1 (centres unmarked) [MD9] | 76 ± 4 | 51 ± 3 | 55±4% | 92 ± 10 | DC50 (MIF [3]; 12 h, western-blot, read-out: DC50 (potency estimated from western blot)): 1000 nM and ~1500 nM; time of treatment after which MIF degradation becomes visible (MIF [3]; MD9 at 10 μM): 3 h; Dmax (MIF [2]; A549, A549 cells, 12 h, ELISA, read-out: maximal degradation): > 90%; DC50 (MIF [2]; A549 cells, 12 h, ELISA, read-out: half-maximal degradation concentration (DC50)): 1500 nM and ~1500 nM; Hook effect (MIF [2]; A549 cells, at 20 μM, ELISA and western-blot): Hook effect; degradation [%] 0.2 μM (MIF [4]): 24±4%
4 | O=C1CCC(N2C(=O)c3cccc(NC(=O)Cc4ccc(-n5cc(CCCC(=O)Nc6ccc(-c7cc8ccc(O)cc8oc7=O)cc6)nn5)cc4)c3C2=O)C(=O)N1 (centres unmarked) [MD6] | 1500 ± 130 | 999 ± 87 | n.s. |  | degradation (%) 20 µM (MIF [2]; A549 cells, 12 h): n.s. and did not trigger MIF reduction
5 | O=C1CCC(N2C(=O)c3cccc(NCCCCC(=O)Nc4ccc(N5Cc6ccc(O)cc6OC5=O)cc4)c3C2=O)C(=O)N1 (centres unmarked) [MD7] | 82 ± 4 | 55 ± 3 | n.s. |  | Dmax at 20 µM (MIF [2]; A549 cells, 12 h): 61 ± 7%
6 | O=C1CCC(N2C(=O)c3cccc(NC(=O)CCCc4cn(CCC(=O)Nc5ccc(N6Cc7ccc(O)cc7OC6=O)cc5)nn4)c3C2=O)C(=O)N1 (centres unmarked) [MD11] | 143 ± 11 | 95 ± 7 | n.s. |  | degradation (%) 20 µM (MIF [2]; A549 cells, 12 h): 40±8%
7 | O=C1CCC(N2C(=O)c3cccc(NC(=O)CCCc4cn(CC(=O)Nc5ccc(-c6cc7ccc(O)cc7oc6=O)cc5)nn4)c3C2=O)C(=O)N1 (centres unmarked) [MD3] | 182 ± 16 | 121 ± 11 | n.s. | 22 ± 9 | 
8 | O=C1CCC(N2C(=O)c3cccc(NCc4cn(CC(=O)Nc5ccc(-c6cc7ccc(O)cc7oc6=O)cc5)nn4)c3C2=O)C(=O)N1 (centres unmarked) [MD1] | 262 ± 35 | 175 ± 23 | n.s. | 16 ± 7 | 
9 | CC(C)C[C@H](NC(=O)[C@H](Cc1ccccc1)NC(=O)c1cnccn1)B(O)O [Bortezomib] |  |  |  |  | rescue of MD9 mediated MIF degradation (MIF [3]): considerably decreased; also recorded: rescued; rescue of MD13 mediated MIF degradation (MIF [3]): inhibited the degradation of MIF; rescue of MD13 mediated MIF degradation (MIF [3]; listed as bortezomib): able to abolish the MD13 triggered degradation
10 | O=C1CCC(N2C(=O)c3cccc(NCc4cn(CCC(=O)Nc5ccc(N6Cc7ccc(O)cc7OC6=O)cc5)nn4)c3C2=O)C(=O)N1 (centres unmarked) [MD10] | 147 ± 13 | 98 ± 9 | 55±9% |  | 
11 | O=C1CCC(N2C(=O)c3cccc(NC(=O)CCCCc4cn(CCC(=O)Nc5ccc(-c6cc7ccc(O)cc7oc6=O)cc5)nn4)c3C2=O)C(=O)N1 (centres unmarked) [MD5] | 895 ± 82 | 597 ± 55 | n.s. | 58 ± 8 | 
12 | COc1ccc(-c2cc3ccc(O)cc3oc2=O)cc1 [compound 2, reference compound] |  | 370 ± 30 |  |  | 
13 | O=C1CCC(N2C(=O)c3cccc(NCCCCCCCCCC(=O)Nc4ccc(N5Cc6ccc(O)cc6OC5=O)cc4)c3C2=O)C(=O)N1 (centres unmarked) [MD14] | 97 ± 6 | 65 ± 4 | 64±2% |  | degradation [%] 0.2 μM (MIF [4]): 51±2%
14 | O=C(Cc1ccc(N2Cc3ccc(O)cc3OC2=O)cc1)NCc1cn(-c2ccc(CC(=O)Nc3cccc4c3C(=O)N(C3CCC(=O)NC3=O)C4=O)cc2)nn1 (centres unmarked) [MD12] | 138 ± 6 | 92 ± 4 | n.s. | 38 ± 6 | 
15 | COC(=O)CC1CC(c2ccc(O)cc2)=NO1 (centres unmarked) [compound 1, ISO 1] |  |  |  |  | rescue of MD9 mediated MIF degradation (MIF [3]): partial to complete rescue; also recorded: rescued
16 | O=C1CCC(N2C(=O)c3cccc(NC(=O)CCCCc4cn(CC(=O)Nc5ccc(-c6cc7ccc(O)cc7oc6=O)cc5)nn4)c3C2=O)C(=O)N1 (centres unmarked) [MD4] | 233 ± 26 | 155 ± 17 | n.s. | 50 ± 3 | 
